Target: T1, human TLR9 (Homo sapiens, UniProt Q9NR96)
T1 construct: host or cells: HEK-Blue hTLR9 (HEK293)
T1 sequence (Q9NR96 26-1032): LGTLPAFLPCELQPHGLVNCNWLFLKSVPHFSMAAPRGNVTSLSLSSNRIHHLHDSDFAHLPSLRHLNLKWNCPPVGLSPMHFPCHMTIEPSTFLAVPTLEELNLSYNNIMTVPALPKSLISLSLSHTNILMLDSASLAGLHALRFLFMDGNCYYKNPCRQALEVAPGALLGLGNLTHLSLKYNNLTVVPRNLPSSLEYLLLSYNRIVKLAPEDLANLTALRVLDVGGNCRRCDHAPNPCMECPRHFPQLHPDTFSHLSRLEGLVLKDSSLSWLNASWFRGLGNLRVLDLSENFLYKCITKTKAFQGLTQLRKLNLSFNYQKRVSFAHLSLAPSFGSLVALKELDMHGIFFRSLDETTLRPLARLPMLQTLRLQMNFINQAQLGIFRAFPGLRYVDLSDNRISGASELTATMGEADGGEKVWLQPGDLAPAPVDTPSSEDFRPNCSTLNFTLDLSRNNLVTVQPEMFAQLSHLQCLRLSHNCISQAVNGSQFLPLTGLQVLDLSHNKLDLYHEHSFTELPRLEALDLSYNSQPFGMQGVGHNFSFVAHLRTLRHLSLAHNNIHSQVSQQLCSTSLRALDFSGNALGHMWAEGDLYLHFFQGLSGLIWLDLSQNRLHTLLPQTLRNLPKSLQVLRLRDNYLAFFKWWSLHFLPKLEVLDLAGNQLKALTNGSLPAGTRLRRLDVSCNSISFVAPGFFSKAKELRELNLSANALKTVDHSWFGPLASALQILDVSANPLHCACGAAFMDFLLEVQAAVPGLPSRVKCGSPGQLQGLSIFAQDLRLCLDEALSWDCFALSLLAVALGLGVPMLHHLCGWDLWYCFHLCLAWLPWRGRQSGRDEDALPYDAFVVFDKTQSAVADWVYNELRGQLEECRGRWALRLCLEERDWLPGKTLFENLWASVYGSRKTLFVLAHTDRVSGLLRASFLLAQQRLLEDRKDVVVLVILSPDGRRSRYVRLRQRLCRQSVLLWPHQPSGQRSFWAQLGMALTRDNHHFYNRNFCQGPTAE
Assay: Inhibitory effect on human TLR9 activation pathway (HEK-Blue hTLR9 SEAP reporter)
Type: cell-based
Details: HEK-Blue hTLR9 cells, 1 μM CpG ODN2006, 20 h, SEAP OD620
Procedure: • 1. HEK-Blue™ hTLR9 cell (Invivogen) • 2. CpG ODN2006 (Invivogen) • 3. Alkaline phosphatase detection medium (Quanti-Blue Detection. Invivogen) • 4. Blasticidin (Invivogen) • 5. Zeocin (Invivogen) • 6. Normocin (Invivogen) • 7. DMEM/HIGH Glucose (GE Healthcare) • 8. Fetal bovine serum (FBS, Gibco) • 9. Phosphate-buffered saline (Shanghai BasalMedia Technologies Co., Ltd.) • 10. Sterile purified water (made in-house by Shanghai Hengrui) • 11. 15 mL centrifuge tube (Corning) • 12. 96-well formulating plate (Corning) • 13. 96-well fat-bottom cell culture plate (Corning) • 14. Constant-temperature cell incubator (Thermo scientific) • 15. Constant-temperature incubator (Shanghai Yiheng Scientific Instruments Co., Ltd.) • 16. PHERAstar FS microplate reader (BMG Labtech)
HEK-Blue™ hTLR9 cells were purchased from Invivogen. These cells are HEK293 cells transfected with the human Toll-like receptor 9 (TLR9) gene and the secreted alkaline phosphatase reporter gene (SEAP). The alkaline phosphatase reporter gene (SEAP) is under the regulation of the IFN-β minimal promoter comprising 5 NF-kB and AP-1 binding sites. Upon activation of TLR9 with an agonist, SEAP secretion is induced via downstream NF-kB and AP-1. Ater addition of an antagonist compound, the pathway described above is inhibited, and SEAP secretion is reduced. The activity of the compounds for the TLR9 pathway was evaluated by measuring OD620 through the SEAP substrate.
20 mM test compounds dissolved in 100% DMSO were serially diluted with 100% DMSO to 2000, 400, 80, 16, 3.2, 0.64, 0.128, 0.0256 IM, with blank wells containing 100% DMSO. […] The cells were cultured at 37° C. for 1-2 min, dispersed by pipetting, transferred to a 15 mL centrifuge tube, and counted, and the cell density was adjusted to 4.8×10^5/mL with the DMEM/HIGH glucose medium containing 10% inactivated FBS. […] Then the OD620 absorbance readings were taken on a microplate reader. The inhibition rate was calculated using the following formula: […]

Row | Compound | IC50
1 | Cc1cc(-c2[nH]c3cc4c(nc3c2C(C)C)CN(CCc2ccc(N3CCNCC3)nc2)CC4)cc(C)n1 [Example 4, 2-(2,6-Dimethylpyridin-4-yl)-3-isopropyl-6-(2-(6-(piperazin-4-yl)pyridin-3-yl)ethyl)-5,6,7,8-tetrahydro-1H-pyrrolo[3,2-b][1,7]naphthyridine] | 74 nM
2 | Cc1cc(-c2[nH]c3cc4c(nc3c2C(C)C)CN(Cc2ccc(N3CCNCC3)cn2)CC4)cc(C)n1 [Example 5, 2-(2,6-Dimethylpyridin-4-yl)-3-isopropyl-6-((5-(piperazin-1-yl)pyridin-2-yl)methyl)-5,6,7,8-tetrahydro-1H-pyrrolo[3,2-b][1,7]naphthyridine] | 87 nM
3 | Cc1cc(-c2[nH]c3cc4c(nc3c2C(C)C)CN(CC23CCC(N)(CC2)CC3)CC4)cc(C)n1 [Example 7, 4-((2-(2,6-Dimethylpyridin-4-yl)-3-isopropyl-1,5,7,8-tetrahydro-6H-pyrrolo[3,2-b][1,7]naphthyridin-6-yl)methyl)bicyclo[2.2.2]octyl-1-amine] | 90 nM

Reference: patent publication US20240360133A1, “FUSED TRICYCLIC COMPOUND, PREPARATION METHOD THEREFOR AND APPLICATION THEREOF IN MEDICINE” (Jiangsu Hengrui Pharmaceuticals Co., Ltd., priority 2020, published 2024)
